# Experimental data published in ChEMBL document CHEMBL4811288, “Linderapyrone: A Wnt signal inhibitor isolated from Lindera umbellata” (Bioorg Med Chem Lett, 2021).
# Active and inactive are the calls of the source. The rule behind the calls is not given here.
# Columns and labels:
# HEK293 = assay: Inhibition of Wnt signalling in HEK293 cells harbouring TCF/beta-catenin luciferase reporter gene assessed as TCF/beta-catenin transcriptional activity at 30 to 60 uM by TOPFlash luciferase assay; assay type: cell-based; settings: Homo sapiens, dose 30-60 µM
# HT-29 = assay: Cytotoxicity against human HT-29 cells assessed as cell viability at 1.563 to 50 uM measured after 72 hrs by plate reader method; assay type: functional, cell-based; settings: for IC50: HT-29, 72 h
Compound,Activity (HEK293),IC50 (HT-29),Activity (HT-29; dose 1.563-50 µM)
CC(C)[C@H]1CC[C@@]2(C)C[C@@H]1c1c(cc(/C=C/c3ccccc3)oc1=O)O2,Active,8.2 µM,
CC(C)[C@H]1CC[C@]2(C)C[C@H]1c1c(cc(/C=C/c3ccccc3)oc1=O)O2,Active,,
Cc1cc2c(c(=O)o1)[C@H]1C[C@](C)(CC[C@@H]1C(C)C)O2,Active,,
COc1cc(/C=C/c2ccccc2)oc(=O)c1,inactive,,
O=C1[C@H](Cc2ccc(O)cc2)N2C(=O)CCN(C(=O)NCc3ccccc3)[C@H]2CN1Cc1cccc2ccccc12,,10.8 µM,
CC1=CC(=O)C(C(C)C)CC1 (racemic),inactive,,
COc1cc(O)c(C(=O)/C=C/c2ccccc2)c2c1[C@@H]1[C@@H](C(C)C)CC[C@](C)(O)[C@@H]1O2,inactive,,
CC(C)[C@@H]1CC[C@@]2(C)C[C@@H]1c1c(cc(/C=C/c3ccccc3)oc1=O)O2,Active,32.4 µM,
Cc1cc(O)cc(=O)o1,inactive,,
CC(C)[C@H]1CC[C@@]2(C)C[C@@H]1c1c(cc(/C=C/c3cccs3)oc1=O)O2,Active,,Active
Cc1cc2c(c(=O)o1)[C@H]1C[C@](C)(CC[C@H]1C(C)C)O2,Active,,
